For assay [1], the system named is Acanthamoeba polyphaga (A. polyphaga; clinical isolate). In words: Growth inhibition of Acanthamoeba polyphaga by luliconazole in solution (methanol specimen), amoebae counted in a Neubauer counting chamber. It counts as cell-based. The following applies: 25° C., 72 hours. On the procedure:
Acanthamoeba polyphaga (A. polyphaga; clinical isolate) was cultured in an ATCC712 medium (hereinafter simply referred to as medium) at 25° C. for 1 week, and the medium was adjusted by adding a medium so that the number of the amoebae was 100,000 amoebae/mL, to make a preculture liquid. A control and samples were prepared by adding 4.3 mL of medium, 200 μL of specimen, and 500 μL of preculture liquid. The amoebae were cultured at 25° C. for 72 hours, and the number of the amoebae was counted by a Neubauer counting chamber.
Luliconazole used in the specimen was obtained as described below. A compound was synthesized according to a method described in Japanese Patent Laid-Open No. 60-218387, an ethyl acetate/normal hexane mixture (5:1) was added, and the resultant was warmed at 60° C. and dissolved under stirring. Crystals were precipitated while stirring the resultant in cooling water at 5° C., were filtered, and dried by sending air at 40° C. for 48 hours to obtain the crystals.
The specimen was prepared using methanol as a solvent so that the final concentration of luliconazole was 0, 5, 10, 20, or 40 μg/mL. The specimen in which the final concentration of luliconazole was 0 μg/mL was used as the control.
Growth inhibition rates were determined based on [(the number of amoebae in control−the number of amoebae in each sample)/the number of amoebae in control]×100. MIC and IC50 were calculated based on the growth inhibition rates by a usual method. MIC was 40 μg/mL, and IC50 was 20 μg/mL.

Assay [2] has as its system Acanthamoeba polyphaga (A. polyphaga). In words: Growth inhibition of Acanthamoeba polyphaga by solid luliconazole crystals (1 mg added to culture). It counts as cell-based. To be noted: 1 mg of solid crystals added after 48 hours preculture; 25° C., 72 hours. On the procedure: The anti-Acanthamoeba activities of the crystals in Examples 2 to 6 were examined based on the method in Example 1. In other words, Acanthamoeba polyphaga (A. polyphaga) of which the number of the amoebae was 50,000 with respect to 4.5 mL of ATCC712 medium was dispersed and seeded in 500 μL of medium, and was preliminarily cultured at 25° C. for 48 hours. To the resultant, 1 mg of each of the crystals in Examples 2 to 6 was added to prepare a control and samples. The culture was further continued at 25° C. for 72 hours, and the number of the amoebae in the culture liquid was measured by a Neubauer counting chamber. The control, to which nothing was added, and in which the amoebae were cultured, was used. Growth inhibition rates were calculated from the counted values according to an expression of [(the number of amoebae in control−the number of amoebae in each sample)/the number of amoebae in control]×100.

The mark [3] stands for this setting: calculated from growth inhibition rates.

Values after ≈ are worked out from the molar mass of the structure shown.

In the case of `N#C/C(=C1/SC[C@@H](c2ccc(Cl)cc2Cl)S1)n1ccnc1` [luliconazole], in assay [1] (setting [3]), the IC50 is 20 µg/mL (≈ 56.5 µM) and the minimal inhibitory concentration (MIC) is 40 µg/mL (≈ 113 µM). Also, the inhibition at 5 µg/mL in assay [1] (luliconazole final concentration 5 μg/mL, ATCC712 medium, read-out: Inhibition Rate (%)) was 20%. Also, in assay [1] (luliconazole final concentration 10 μg/mL, ATCC712 medium, read-out: Inhibition Rate (%)), the inhibition at 10 µg/mL amounted to 40%. The inhibition at 20 µg/mL in assay [1] (luliconazole final concentration 20 μg/mL, ATCC712 medium, read-out: Inhibition Rate (%)) was 50%. For the same compound, in assay [1] (luliconazole final concentration 40 μg/mL, ATCC712 medium, read-out: Inhibition Rate (%)), the inhibition at 40 µg/mL turned out to be 95%.
Take `N#C/C(=C1/SC[C@@H](c2ccc(Cl)cc2Cl)S1)n1ccnc1` [Crystal in Example 5, luliconazole]: the “Growth Inhibition Rate (%)” value in assay [2] is given as 77.0%.
In the case of `N#C/C(=C1/SC[C@@H](c2ccc(Cl)cc2Cl)S1)n1ccnc1` [Crystal in Example 3, luliconazole], in assay [2], the “Growth Inhibition Rate (%)” value came out at 25.9%.
For the compound `N#C/C(=C1/SC[C@@H](c2ccc(Cl)cc2Cl)S1)n1ccnc1` [Crystal in Example 4, luliconazole], the “Growth Inhibition Rate (%)” value in assay [2] is given as 69.6%.
`N#C/C(=C1/SC[C@@H](c2ccc(Cl)cc2Cl)S1)n1ccnc1` [Crystal in Example 6, luliconazole]: the “Growth Inhibition Rate (%)” value in assay [2] was 54.8%.
`N#C/C(=C1/SC[C@@H](c2ccc(Cl)cc2Cl)S1)n1ccnc1` [Crystal in Example 2, luliconazole]: in assay [2], the “Growth Inhibition Rate (%)” value was found to be 66.7%.

Broadly, the IC50 is the point on the concentration scale where inhibition reaches its midpoint. As a reminder, the MIC is the least concentration at which growth counts as inhibited. The term inhibition denotes the drop in the measured response relative to a control, in per cent.

The values are drawn from US20200268716A1, “LULICONAZOLE AS ANTI-ACANTHAMOEBA AGENT AND METHOD FOR PRODUCING THE SAME” (Pola Pharma Inc., priority 2015, published 2020).
